# According to BindingDB's records for doi:10.1021/jm980200+ (St. Cloud State University, 1998):
# Assay: Inhibitory activity against yeast aldehyde dehydrogenase (AIDH)
row,SMILES,IC50 [µM]
1,CC(=O)ON(c1ccccc1)S(=O)(=O)c1ccccc1 [N-Acetoxy-N-phenyl-benzenesulfonamide],36
2,CC(=O)ON(C(C)=O)S(C)(=O)=O [N-Acetoxy-N-acetyl-methanesulfonamide],1000
3,COC(=O)ON(C(=O)OC)S(C)(=O)=O [methyl (methoxycarbonyl)oxy(methylsulfonyl)carbamate],20.9
4,CCOC(=O)ON(C(=O)OCC)S(C)(=O)=O [ethyl (ethoxycarbonyl)oxy(methylsulfonyl)carbamate],35.6
5,O=Nc1ccccc1 [NOB],2.5

# Other lines, results leading:
row,IC50 [µM],SMILES
1,64.3,CCOC(=O)ON(c1ccccc1)S(=O)(=O)c1ccccc1 [N-[(ethoxycarbonyl)oxy]-N-phenylbenzenesulfonamide]
2,38.3,COC(=O)ON(c1ccccc1)S(=O)(=O)c1ccccc1 [N-[(methoxycarbonyl)oxy]-N-phenylbenzenesulfonamide]
3,> 1000,CON(c1ccccc1)S(=O)(=O)c1ccccc1 [N-Methoxy-N-phenyl-benzenesulfonamide]
